≈ marks a conversion by molar mass, not a printed value.
Experiments:
Acinetobacter CMX 669 = experiment: MIC, agar dilution method; assay type: cell-based; settings: Brain Heart Infusion agar, 10^5 CFU inoculum
Description: (§1) The antibacterial activity of the compounds of the invention against a variety of microorganisms is illustrated in Table 3. Minimum inhibitory concentrations were determined by the agar dilution method using brain heart infusion agar with 10 ^5 CFU (colony forming units) as the inoculum.

[1] = system: Enterobacter aerogenes ATCC 13048; experiment: MIC, agar dilution method; assay type: cell-based; settings: Brain Heart Infusion agar, 10^5 CFU inoculum
Description: as §1

Escherichia coli DC-2 = experiment: MIC, agar dilution method; assay type: cell-based; settings: Brain Heart Infusion agar, 10^5 CFU inoculum
Description: as §1

Escherichia coli Juhl = experiment: MIC, agar dilution method; assay type: cell-based; settings: Brain Heart Infusion agar, 10^5 CFU inoculum
Description: as §1

Escherichia coli SS = experiment: MIC, agar dilution method; assay type: cell-based; settings: Brain Heart Infusion agar, 10^5 CFU inoculum
Description: as §1

[2] = system: Klebsiella pneumoniae ATCC 8045; experiment: MIC, agar dilution method; assay type: cell-based; settings: Brain Heart Infusion agar, 10^5 CFU inoculum
Description: as §1

[3] = system: Lactobacillus casei ATCC 7469; experiment: MIC, agar dilution method; assay type: cell-based; settings: Brain Heart Infusion agar, 10^5 CFU inoculum
Description: as §1

[4] = system: Pseudomonas aeruginosa 5007; experiment: MIC, agar dilution method; assay type: cell-based; settings: Brain Heart Infusion agar, 10^5 CFU inoculum
Description: as §1

Pseudomonas cepacia 2961 = experiment: MIC, agar dilution method; assay type: cell-based; settings: Brain Heart Infusion agar, 10^5 CFU inoculum
Description: as §1

Sarcina lutea 9341 = experiment: MIC, agar dilution method; assay type: cell-based; settings: Brain Heart Infusion agar, 10^5 CFU inoculum
Description: as §1

[5] = system: Staphylococcus aureus 45 RAR2; experiment: MIC, agar dilution method; assay type: cell-based; settings: Brain Heart Infusion agar, 10^5 CFU inoculum
Description: as §1

Staphylococcus aureus 45 = experiment: MIC, agar dilution method; assay type: cell-based; settings: Brain Heart Infusion agar, 10^5 CFU inoculum
Description: as §1

[6] = system: Staphylococcus aureus A5177; experiment: MIC, agar dilution method; assay type: cell-based; settings: Brain Heart Infusion agar, 10^5 CFU inoculum
Description: as §1

[7] = system: Staphylococcus aureus ATCC 6538P; experiment: MIC, agar dilution method; assay type: cell-based; settings: Brain Heart Infusion agar, 10^5 CFU inoculum
Description: as §1

[8] = system: Staphylococcus aureus CMX 686b; experiment: MIC, agar dilution method; assay type: cell-based; settings: Brain Heart Infusion agar, 10^5 CFU inoculum
Description: as §1

[9] = system: Staphylococcus epidermidis 3519 RAR1; experiment: MIC, agar dilution method; assay type: cell-based; settings: Brain Heart Infusion agar, 10^5 CFU inoculum
Description: as §1

[10] = system: Staphylococcus epidermidis 3519; experiment: MIC, agar dilution method; assay type: cell-based; settings: Brain Heart Infusion agar, 10^5 CFU inoculum
Description: as §1

[11] = system: Streptococcus agalactiae CMX 508; experiment: MIC, agar dilution method; assay type: cell-based; settings: Brain Heart Infusion agar, 10^5 CFU inoculum
Description: as §1

[12] = system: Streptococcus bovis A5169; experiment: MIC, agar dilution method; assay type: cell-based; settings: Brain Heart Infusion agar, 10^5 CFU inoculum
Description: as §1

[13] = system: Streptococcus faecium ATCC 8043; experiment: MIC, agar dilution method; assay type: cell-based; settings: Brain Heart Infusion agar, 10^5 CFU inoculum
Description: as §1

[14] = system: Streptococcus pyogenes 930; experiment: MIC, agar dilution method; assay type: cell-based; settings: Brain Heart Infusion agar, 10^5 CFU inoculum
Description: as §1

[15] = system: Streptococcus pyogenes EES61; experiment: MIC, agar dilution method; assay type: cell-based; settings: Brain Heart Infusion agar, 10^5 CFU inoculum
Description: as §1

KB cells = experiment: KB antitumor test (cytotoxicity); assay type: cell-based, human; settings: Tumor Cell 9KB; dose which inhibits growth to 50% of control growth by 3 days after drug addition
Description: The cytotoxic activity of the compounds of the invention can be tested by a KB antitumor test. KB cells are derived from human epidermoid carcinoma of the mouth and are cultivated on Eagel's basal medium plus 10% serum. Stock cells are fed 24 hours before testing. Test drug is added on day 0 or day 1. Results are expressed as the dose which inhibits growth to 50% of control growth by 3 days after drug addition.
When the K8 antitumor test was conducted on benzanthrins A and B, the following test data resulted: […]

Cc1cc2cc(O)c3c(c2c(O[C@@H]2C[C@H](N(C)C)[C@@H](O)[C@@H](C)O2)c1[C@@H]1C[C@H](N(C)C)[C@@H](O)[C@H](C)O1)C(=O)c1cccc(O)c1C3=O [Benzanthrin A]
MIC (Acinetobacter CMX 669): 100 µg/mL (≈ 158 µM)
MIC [1]: 100 µg/mL (≈ 158 µM)
MIC (Escherichia coli DC-2): 100 µg/mL (≈ 158 µM)
MIC (Escherichia coli Juhl): 100 µg/mL (≈ 158 µM)
MIC (Escherichia coli SS): 3.1 µg/mL (≈ 4.88 µM)
MIC [2]: 100 µg/mL (≈ 158 µM)
MIC [3]: 0.78 µg/mL (≈ 1.23 µM)
MIC [4]: 100 µg/mL (≈ 158 µM)
MIC (Pseudomonas cepacia 2961): 100 µg/mL (≈ 158 µM)
MIC (Sarcina lutea 9341): 1.56 µg/mL (≈ 2.46 µM)
MIC [5]: 3.1 µg/mL (≈ 4.88 µM)
MIC (Staphylococcus aureus 45): 3.1 µg/mL (≈ 4.88 µM)
MIC [6]: 3.1 µg/mL (≈ 4.88 µM)
MIC [7]: 3.1 µg/mL (≈ 4.88 µM)
MIC [8]: 3.1 µg/mL (≈ 4.88 µM)
MIC [9]: 3.1 µg/mL (≈ 4.88 µM)
MIC [10]: 3.1 µg/mL (≈ 4.88 µM)
MIC [11]: 0.78 µg/mL (≈ 1.23 µM)
MIC [12]: 0.39 µg/mL (≈ 0.614 µM)
MIC [13]: 1.56 µg/mL (≈ 2.46 µM)
MIC [14]: 0.2 µg/mL (≈ 0.315 µM)
MIC [15]: 1.56 µg/mL (≈ 2.46 µM)
ED50 (KB cells): 100 to 300 µg/mL

Cc1cc2cc(O)c3c(c2c(O[C@@H]2C[C@H](N(C)C)[C@H](O)[C@@H](C)O2)c1[C@@H]1C[C@H](N(C)C)[C@@H](O)[C@H](C)O1)C(=O)c1cccc(O)c1C3=O [Benzanthrin B]
MIC [1]: 100 µg/mL (≈ 158 µM)
MIC (Escherichia coli DC-2): 100 µg/mL (≈ 158 µM)
MIC (Escherichia coli Juhl): 100 µg/mL (≈ 158 µM)
MIC (Escherichia coli SS): 6.2 µg/mL (≈ 9.77 µM)
MIC [2]: 100 µg/mL (≈ 158 µM)
MIC [3]: 0.78 µg/mL (≈ 1.23 µM)
MIC [4]: 100 µg/mL (≈ 158 µM)
MIC (Pseudomonas cepacia 2961): 100 µg/mL (≈ 158 µM)
MIC [5]: 3.1 µg/mL (≈ 4.88 µM)
MIC (Staphylococcus aureus 45): 1.56 µg/mL (≈ 2.46 µM)
MIC [6]: 1.56 µg/mL (≈ 2.46 µM)
MIC [7]: 3.1 µg/mL (≈ 4.88 µM)
MIC [8]: 1.56 µg/mL (≈ 2.46 µM)
MIC [9]: 3.1 µg/mL (≈ 4.88 µM)
MIC [10]: 3.1 µg/mL (≈ 4.88 µM)
MIC [11]: 0.39 µg/mL (≈ 0.614 µM)
MIC [12]: 0.2 µg/mL (≈ 0.315 µM)
MIC [13]: 1.56 µg/mL (≈ 2.46 µM)
MIC [14]: 0.2 µg/mL (≈ 0.315 µM)
MIC [15]: 0.39 µg/mL (≈ 0.614 µM)
ED50 (KB cells): 200 to 300 µg/mL
